Assay results as given in ChEMBL document CHEMBL1147916, “2-(2-(2-Ethoxybenzoylamino)-4-chlorophenoxy)-N-(2-ethoxybenzoyl)benzamine inhibits EAT cell induced angiogenesis by down regulation of VEGF secretion” (2007).
Activity calls are given as the source filed them. The rule behind the calls is not given here.

Key:
EAT [1] = experiment: Antiangiogenic activity against EAT cells bearing Swiss Albino mouse assessed as microvasculature at 100 mg/kg after 6 days by peritoneal angiogenesis assay; format: functional, organism-based; design: dose 100 mg/kg
EAT [2] = experiment: Antiangiogenic activity against EAT cells bearing Swiss Albino mouse assessed as ascites volume at 100 mg/kg after 12 days; format: functional, organism-based; design: dose 100 mg/kg
EAT [3] = experiment: Inhibition of VEGF secretion in EAT cells bearing Swiss Albino mouse at 100 mg/kg after 6 days by VEGF ELISA; format: functional, organism-based; design: dose 100 mg/kg
EAT [4] = experiment: Antiangiogenic activity against EAT cells bearing Swiss Albino mouse by CAM assay; format: functional
[5] = Antiangiogenic activity against swiss albino mouse EAT cells assessed as decrease in body weight at 100 mg/kg after 6 days; format: functional; design: scale not given: the % may be the effect or the level left
EAT [6] = experiment: Antiangiogenic activity against EAT cells bearing Swiss Albino mouse assessed as cell number at 100 mg/kg after 12 days by trypan blue dye exclusion method; format: functional, organism-based; design: dose 100 mg/kg

Q: With `CCOc1ccccc1C(=O)Nc1ccccc1Oc1ccc(Cl)cc1NC(=O)c1ccccc1OCC` as the compound, how does the Activity (EAT [1]) read?
A: Active

Q: And the Activity (EAT [2])?
A: Active

Q: What about the Activity (EAT [3]) of the same compound?
A: Active

Q: And the Activity (EAT [4])?
A: Active

Q: What about the Activity [5] of the same compound?
A: 65%

Q: What about the Activity (EAT [6]) of the same compound?
A: Active
